# Patent publication US20230183239A1, “ECTONUCLEOTIDE PYROPHOSPHATASE-PHOSPHODIESTERASE 1 (ENPP-1) INHIBITORS AND USES THEREOF” (AbbVie Inc., priority 2017, published 2023)
# Experiments:
# Format in all cases: biochemical
# ENPP1 [1] = target: T1, ENPP1 (Homo sapiens, UniProt P22413); assay: Substrate selectivity ratio, inhibition of cGAMP hydrolysis versus ATP hydrolysis; settings: ratio Ki AMP-pNP / Ki cGAMP
# T1 sequence (P22413 1-925): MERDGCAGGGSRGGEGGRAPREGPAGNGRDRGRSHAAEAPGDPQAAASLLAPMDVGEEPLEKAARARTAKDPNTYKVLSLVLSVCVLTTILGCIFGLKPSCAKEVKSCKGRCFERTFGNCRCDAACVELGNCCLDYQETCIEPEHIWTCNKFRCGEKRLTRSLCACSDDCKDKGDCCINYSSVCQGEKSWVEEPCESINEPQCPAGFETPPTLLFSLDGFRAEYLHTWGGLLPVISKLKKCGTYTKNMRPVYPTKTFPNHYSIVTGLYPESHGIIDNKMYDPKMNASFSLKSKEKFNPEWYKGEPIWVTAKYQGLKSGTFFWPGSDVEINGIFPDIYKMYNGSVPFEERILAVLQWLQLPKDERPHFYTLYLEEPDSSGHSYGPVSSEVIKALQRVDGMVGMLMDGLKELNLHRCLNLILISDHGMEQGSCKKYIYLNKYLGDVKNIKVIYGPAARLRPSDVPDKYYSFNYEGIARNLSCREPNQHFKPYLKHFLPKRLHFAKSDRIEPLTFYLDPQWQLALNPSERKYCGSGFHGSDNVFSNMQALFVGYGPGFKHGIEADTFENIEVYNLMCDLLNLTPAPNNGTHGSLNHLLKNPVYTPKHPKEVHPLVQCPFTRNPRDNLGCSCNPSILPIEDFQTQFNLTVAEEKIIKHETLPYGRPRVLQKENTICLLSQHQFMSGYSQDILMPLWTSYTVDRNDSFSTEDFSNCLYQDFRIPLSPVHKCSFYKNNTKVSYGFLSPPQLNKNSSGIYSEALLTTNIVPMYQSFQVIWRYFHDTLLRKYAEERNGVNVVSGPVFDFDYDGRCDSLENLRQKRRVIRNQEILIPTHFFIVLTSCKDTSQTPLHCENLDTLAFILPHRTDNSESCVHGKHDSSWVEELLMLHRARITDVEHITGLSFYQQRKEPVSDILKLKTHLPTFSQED
# Method: The selectivity ratios for inhibition of cGAMP hydrolysis versus ATP hydrolysis were then calculated as follows: […]
# ENPP1 [2] = target: T1, ENPP1; assay: Indirect quantitation of 2',3'-cGAMP hydrolysis (AMP-Glo Assay kit); settings: cGAMP substrate; Ki from IC50 by Cheng-Prusoff; read-out: ENPP1 Inhibition -cGAMP: Ki
# ENPP1 [3] = target: T1, ENPP1; assay: ENPP1 enzyme assay with AMP-pNP substrate (hydrolysis of ATP analog); settings: AMP-pNP substrate (ATP analog); Ki from IC50 by Cheng-Prusoff; read-out: ENPP1 Inhibition _AMP-pNP: Ki
# Method in brief: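 Reactions ran 20 min at 37 °C, pH 8.5 Tris buffer with NaCl, CaCl2, ZnCl2, using 300 µM AMP-pNP and 60 ng/well recombinant human ENPP1; inhibitor range 10 µM–30 pM, duplicates.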
smiles,measurement,setting,value
"COc1cc2nccc(Oc3ccc4c(c3)CNS(=O)(=O)N4)c2cc1OC [Example 263, 6-((6,7-dimethoxyquinolin-4-yl)oxy)-3,4-dihydro-1H-benzo[c][1,2,6]thiadiazine 2,2-dioxide]",Substrate Selectivity: Ki_AMP-pNP/Ki_cGAMP,ENPP1 [1],>61.9
same,Ki,ENPP1 [2],100 to 1000 nM
same,Ki,ENPP1 [3],> 1000 nM
"COc1ccc2ncnc(-c3ccc(CNS(N)(=O)=O)cc3)c2c1 [Example 264, N-(4-(6-methoxyquinazolin-4-yl)benzyl)sulfamide]",Substrate Selectivity: Ki_AMP-pNP/Ki_cGAMP,ENPP1 [1],>28.0
same,Ki,ENPP1 [2],100 to 1000 nM
same,Ki,ENPP1 [3],> 1000 nM
"NS(=O)(=O)N1CCC2(CCN(c3ccnc4cc(OC(F)F)ccc34)CC2)C1 [Example 265, 8-(7-(difluoromethoxy)quinolin-4-yl)-2,8-diazaspiro[4.5]decane-2-sulfonamide]",Substrate Selectivity: Ki_AMP-pNP/Ki_cGAMP,ENPP1 [1],>13.0
same,Ki,ENPP1 [2],100 to 1000 nM
same,Ki,ENPP1 [3],> 1000 nM
"COc1cc2ncc(-c3ccc(CNS(N)(=O)=O)cc3)n2cc1OC [Example 266, N-(4-(6,7-dimethoxyimidazo[1,2-a]pyridin-3-yl)benzyl)sulfamide]",Substrate Selectivity: Ki_AMP-pNP/Ki_cGAMP,ENPP1 [1],>5.9
same,Ki,ENPP1 [2],< 100 nM
same,Ki,ENPP1 [3],100 to 1000 nM
"COc1ccc2c(NCc3ccc(NS(N)(=O)=O)cc3)ccnc2c1 [Example 267, N-(4-(((7-methoxyquinolin-4-yl)amino)methyl)phenyl)sulfamide]",Substrate Selectivity: Ki_AMP-pNP/Ki_cGAMP,ENPP1 [1],22.5
same,Ki,ENPP1 [2],< 100 nM
same,Ki,ENPP1 [3],100 to 1000 nM
"COc1ccc2c(Nc3ccc(NS(N)(=O)=O)cc3)ccnc2c1F [Example 269, N-(4-((8-fluoro-7-methoxyquinolin-4-yl)amino)phenyl)sulfamide]",Substrate Selectivity: Ki_AMP-pNP/Ki_cGAMP,ENPP1 [1],>7.1
same,Ki,ENPP1 [2],< 100 nM
same,Ki,ENPP1 [3],100 to 1000 nM
"COc1cc2nccc(Oc3cc(F)c(NS(N)(=O)=O)c(F)c3)c2cc1OC [Example 271, N-(4-((6,7-dimethoxyquinolin-4-yl)oxy)-2,6-difluorophenyl)sulfamide]",Substrate Selectivity: Ki_AMP-pNP/Ki_cGAMP,ENPP1 [1],>16.2
same,Ki,ENPP1 [2],100 to 1000 nM
same,Ki,ENPP1 [3],> 1000 nM
"COc1cc2ncnc(NC3CCC(NS(N)(=O)=O)CC3)c2cc1OC (stereo not drawn) [Example 272, N-(4-((6,7-dimethoxyquinazolin-4-yl)amino)cyclohexyl)sulfamide]",Substrate Selectivity: Ki_AMP-pNP/Ki_cGAMP,ENPP1 [1],>35.2
same,Ki,ENPP1 [2],< 100 nM
same,Ki,ENPP1 [3],> 1000 nM
"COc1cc2ncnc(Oc3ccc(NS(N)(=O)=O)cc3)c2cc1OC [Example 273, N-(4-((6,7-dimethoxyquinazolin-4-yl)oxy)phenyl)sulfamide]",Substrate Selectivity: Ki_AMP-pNP/Ki_cGAMP,ENPP1 [1],>12.4
same,Ki,ENPP1 [2],100 to 1000 nM
same,Ki,ENPP1 [3],> 1000 nM
"COc1cc2ncnc(N3CCC4(CCNC4)CC3)c2cc1OC [Example 274, 8-(6,7-dimethoxyquinazolin-4-yl)-2,8-diazaspiro[4.5]decane]",Substrate Selectivity: Ki_AMP-pNP/Ki_cGAMP,ENPP1 [1],>6.4
same,Ki,ENPP1 [2],100 to 1000 nM
same,Ki,ENPP1 [3],> 1000 nM
"COc1ccc2c(N3CCC4(CCNC4)CC3)c(C#N)cnc2c1 [Example 275, 7-methoxy-4-(2,8-diazaspiro[4.5]decan-8-yl)quinoline-3-carbonitrile]",Substrate Selectivity: Ki_AMP-pNP/Ki_cGAMP,ENPP1 [1],>7.7
same,Ki,ENPP1 [2],100 to 1000 nM
same,Ki,ENPP1 [3],> 1000 nM
"COc1ccc2c(-c3ccc(CN)cc3)c(C#N)cnc2c1 [Example 277, 4-(4-(aminomethyl)phenyl)-7-methoxyquinoline-3-carbonitrile]",Substrate Selectivity: Ki_AMP-pNP/Ki_cGAMP,ENPP1 [1],>90.4
same,Ki,ENPP1 [2],100 to 1000 nM
same,Ki,ENPP1 [3],> 1000 nM
"COc1ccc2c(NC(C)c3ccc(NS(N)(=O)=O)cc3)ncnc2c1 (stereo not drawn) [Example 279, N-(4-(1-((7-methoxyquinazolin-4-yl)amino)ethyl)phenyl)sulfamide]",Substrate Selectivity: Ki_AMP-pNP/Ki_cGAMP,ENPP1 [1],24.2
same,Ki,ENPP1 [2],< 100 nM
same,Ki,ENPP1 [3],100 to 1000 nM
"COc1cc2nccc(N3CCc4cc(NS(N)(=O)=O)ccc43)c2cc1OC [Example 281, N-(1-(6,7-dimethoxyquinolin-4-yl)indolin-5-yl)sulfamide]",Substrate Selectivity: Ki_AMP-pNP/Ki_cGAMP,ENPP1 [1],30.7
same,Ki,ENPP1 [2],< 100 nM
same,Ki,ENPP1 [3],100 to 1000 nM
"COc1cc2ncc(C3CC3)c(-c3ccc4c(c3)CN(S(N)(=O)=O)CC4)c2cc1OC [Example 283, 7-(3-cyclopropyl-6,7-dimethoxyquinolin-4-yl)-3,4-dihydroisoquinoline-2(1H)-sulfonamide]",Substrate Selectivity: Ki_AMP-pNP/Ki_cGAMP,ENPP1 [1],5.4
same,Ki,ENPP1 [2],< 100 nM
same,Ki,ENPP1 [3],< 100 nM
"COc1cc2nccc(-c3ccc(CN(O)C=O)cc3)c2cc1OC [Example 284, N-(4-(6,7-dimethoxyquinolin-4-yl)benzyl)-N-hydroxyformamide]",Substrate Selectivity: Ki_AMP-pNP/Ki_cGAMP,ENPP1 [1],28.6
same,Ki,ENPP1 [2],< 100 nM
same,Ki,ENPP1 [3],< 100 nM
"COc1cc2ncnc(-c3ccc(CN(C4CC4)S(N)(=O)=O)cc3)c2cc1OC [Example 285, N-cyclopropyl-N-(4-(6,7-dimethoxyquinazolin-4-yl)benzyl)sulfamide]",Substrate Selectivity: Ki_AMP-pNP/Ki_cGAMP,ENPP1 [1],>28.3
same,Ki,ENPP1 [2],< 100 nM
same,Ki,ENPP1 [3],100 to 1000 nM
"NS(=O)(=O)N1CCC2(CCN(c3ncnc4ccc(F)cc34)CC2)C1 [Example 288, 8-(6-fluoroquinazolin-4-yl)-2,8-diazaspiro[4.5]decane-2-sulfonamide]",Substrate Selectivity: Ki_AMP-pNP/Ki_cGAMP,ENPP1 [1],27.9
same,Ki,ENPP1 [2],< 100 nM
same,Ki,ENPP1 [3],100 to 1000 nM
"COc1ccc2c(-c3ccc(CN(C4CC4)S(N)(=O)=O)cc3)ccnc2c1 [Example 289, N-cyclopropyl-N-(4-(7-methoxyquinolin-4-yl)benzyl)sulfamide]",Substrate Selectivity: Ki_AMP-pNP/Ki_cGAMP,ENPP1 [1],> 626
same,Ki,ENPP1 [2],< 100 nM
same,Ki,ENPP1 [3],> 1000 nM
"COc1cc2ncc(C#N)c(-c3ccc(CN(C4CC4)S(N)(=O)=O)cc3)c2cc1OC [Example 290, N-(4-(3-cyano-6,7-dimethoxyquinolin-4-yl)benzyl)-N-cyclopropylsulfamide]",Substrate Selectivity: Ki_AMP-pNP/Ki_cGAMP,ENPP1 [1],17.1
same,Ki,ENPP1 [2],< 100 nM
same,Ki,ENPP1 [3],100 to 1000 nM
"COc1cc2nccc(N3CCCc4cc(NS(N)(=O)=O)ccc43)c2cc1OC [Example 291, N-(6′,7′-dimethoxy-3,4-dihydro-2H-[1,4′-biquinolin]-6-yl)sulfamide]",Substrate Selectivity: Ki_AMP-pNP/Ki_cGAMP,ENPP1 [1],> 126
same,Ki,ENPP1 [2],100 to 1000 nM
same,Ki,ENPP1 [3],> 1000 nM
"COc1cc2nccc(Oc3ccc(N(O)C=O)cc3)c2cc1OC [Example 292, N-(4-((6,7-dimethoxyquinolin-4-yl)oxy)phenyl)-N-hydroxyformamide]",Substrate Selectivity: Ki_AMP-pNP/Ki_cGAMP,ENPP1 [1],>31.1
same,Ki,ENPP1 [2],< 100 nM
same,Ki,ENPP1 [3],> 1000 nM
"COc1ccc2c(NCc3ccc(S(N)(=O)=O)cc3)ccnc2c1 [Example 293, 4-(((7-methoxyquinolin-4-yl)amino)methyl)benzenesulfonamide]",Substrate Selectivity: Ki_AMP-pNP/Ki_cGAMP,ENPP1 [1],17.9
same,Ki,ENPP1 [2],< 100 nM
same,Ki,ENPP1 [3],< 100 nM
"COc1ccc2ncc(C#N)c(-c3ccc(CN(C4CC4)S(N)(=O)=O)cc3)c2c1 [Example 294, N-(4-(3-cyano-6-methoxyquinolin-4-yl)benzyl)-N-cyclopropylsulfamide]",Substrate Selectivity: Ki_AMP-pNP/Ki_cGAMP,ENPP1 [1],>119
same,Ki,ENPP1 [2],100 to 1000 nM
same,Ki,ENPP1 [3],> 1000 nM
"NS(=O)(=O)NCc1ccc(-c2ccnc3cc(F)ccc23)cc1 [Example 296, N-(4-(7-fluoroquinolin-4-yl)benzyl)sulfamide]",Substrate Selectivity: Ki_AMP-pNP/Ki_cGAMP,ENPP1 [1],> 40.3
same,Ki,ENPP1 [2],< 100 nM
same,Ki,ENPP1 [3],> 1000 nM
"COc1ccc2c(Oc3ccc(NS(N)(=O)=O)c(F)c3)ccnc2c1 [Example 297, N-(2-fluoro-4-((7-methoxyquinolin-4-yl)oxy)phenyl)sulfamide]",Substrate Selectivity: Ki_AMP-pNP/Ki_cGAMP,ENPP1 [1],19.5
same,Ki,ENPP1 [2],< 100 nM
same,Ki,ENPP1 [3],100 to 1000 nM
